From patent publication US8497276B2, “Substituted indolo-piperidine compounds” (ArQule, Inc., priority 2009, dated 2013)

How the values were obtained:
NCI-H1299 = experiment: MTS Assay (cell growth inhibition), NCI-H1299; assay type: cell-based; conditions: NCI-H1299 cells, 72 hours with test compound; concentration not given
Experimental: (§1) Cells were maintained at 37° C., 5% CO2 in DMEM media supplemented with 1% fetal bovine serum, penicillin/streptomycin and fungizone (Invitrogen). Cells were seeded into 96-well tissue culture plates at 3000 per well and cultured at 37° C. for 18 hours. Test compounds were dissolved and diluted to 300× in DMSO then diluted 1:40 in DMEM. Cells were incubated with test compounds for 72 hours followed by incubation with tetrazolium compound (3-(4,5-dimethylthiazol-2-yl)-5-(3-carboxymethoxyphenyl)-2-(4-sulfophenyl)-2H-tetrazolium, inner salt; MTS) and the electron coupling reagent, phenazine methosulfate (PMS) for 4 hours. […] The ability of compounds to inhibit cell growth in this assay is correlated with the reduction of dehydrogenase enzyme activity found in metabolically active cells. The measurement of the absorbance of the formazan was assessed using an ENVISION™ (Perkin Elmer) microplate reader at 492 nm. The calculated IC50 value is the concentration of the test compound that causes a 50% decrease in the absorbance.

Kato III = experiment: MTS Assay (cell growth inhibition), Kato III; assay type: cell-based; conditions: Kato III cells, 72 hours with test compound; concentration not given
Experimental: as §1

MDA-MB 231 = experiment: MTS Assay (cell growth inhibition), MDA-MB 231; assay type: cell-based; conditions: MDA-MB 231 cells, 72 hours with test compound; concentration not given
Experimental: as §1

PC-3 = experiment: MTS Assay (cell growth inhibition), PC-3; assay type: cell-based; conditions: PC-3 cells, 72 hours with test compound; concentration not given
Experimental: as §1

DLD-1 = experiment: MTS Assay (cell growth inhibition), DLD-1; assay type: cell-based; conditions: DLD-1 cells, 72 hours with test compound; concentration not given
Experimental: as §1

Tec kinase = target: T1, Tec kinase (Homo sapiens, UniProt P42680); experiment: Tec Kinase Activity Assay; assay type: biochemical; conditions: 75 μM ATP, Pyk-2 substrate; compound concentration not given
T1 sequence (P42680 1-631): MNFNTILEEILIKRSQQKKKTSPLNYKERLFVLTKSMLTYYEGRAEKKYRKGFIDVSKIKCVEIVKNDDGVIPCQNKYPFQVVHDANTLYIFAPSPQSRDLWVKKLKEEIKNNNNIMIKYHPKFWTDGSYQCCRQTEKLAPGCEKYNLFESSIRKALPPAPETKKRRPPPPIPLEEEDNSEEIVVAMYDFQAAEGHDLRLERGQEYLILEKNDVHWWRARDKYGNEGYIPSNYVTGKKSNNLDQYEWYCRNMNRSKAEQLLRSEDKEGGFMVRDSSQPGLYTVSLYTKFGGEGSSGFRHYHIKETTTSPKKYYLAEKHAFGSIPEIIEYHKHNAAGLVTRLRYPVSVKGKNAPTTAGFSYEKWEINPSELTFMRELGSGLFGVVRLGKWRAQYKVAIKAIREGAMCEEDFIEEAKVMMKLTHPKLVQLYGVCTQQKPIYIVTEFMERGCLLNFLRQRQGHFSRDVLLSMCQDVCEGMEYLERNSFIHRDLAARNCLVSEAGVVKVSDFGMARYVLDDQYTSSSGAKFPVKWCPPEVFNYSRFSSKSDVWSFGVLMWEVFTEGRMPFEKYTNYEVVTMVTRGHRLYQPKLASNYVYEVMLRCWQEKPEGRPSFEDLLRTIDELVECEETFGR
Experimental: The disclosed compounds were assayed for their ability to inhibit the activity of Tec kinase. Nunc Maxisorb plates were coated with streptavidin by overnight incubation with 100 μl per well of 1 μg/ml Streptavidin in DPBS. Prior to the start of the experiment, the plates were washed with TBST (3×200 μl) and blocked for at least 1 hour by adding 150 μl of 5% BSA/TBST. The plates were then washed with TBST (3×200 μl/well) and left dry immediately before the capture step.
The disclosed test compounds and controls (Staurosporine and Sutent) were prepared using the following assay buffer (50 mM Tris-HCl, 0.02 mg/ml BSA, 10 mM MgCl2, 0.1 mM Na3VO4, 1 mM EGTA, 75 μM ATP, 0.01% NP-40, 2 mM DTT in 10% glycerol/water) at 3× desired final concentration. 20 μl of the test compounds (or control) and 20 μl TEC (0.25 ng/μl) were rapidly added to a reaction plate. The plate was incubated for 30 minutes. 20 μl of Pyk-2 (0.5 ng/μl) was then added to the reaction plate. The plate was incubated at room temperature for two hours.
50 μl was transferred from the reaction plate to the streptavidin coated plate. The capture plate was incubated at room temperature for 30 minutes then washed with TBST 6 times. 100 μl/well of Cell Signaling anti-phospho tyrosine was added to the capture plate at a dilution of 1:3000 in 2% BSA/TBST. The plate was incubated for one hour at room temperature then washed with TBST 6 times. 100 μl/well of alkaline phosphatase tagged goat anti-mouse antibody was added to the capture plate at a dilution of 1:4000 in 2% BSA/TBST. The plate was incubated for one hour at room temperature then washed with TBST 6 times.
The fluorescent readout was initiated by the addition of 100 μl/well of Attophos reagent (6 mg/10 ml) and the reading was done on the Perkin Elmer Envision system.

PACA-2 = experiment: MTS Assay (cell growth inhibition), PACA-2; assay type: cell-based; conditions: PACA-2 cells, 72 hours with test compound; concentration not given
Experimental: as §1

Biochemical IC50 (% inhibition) Tec (Tec kinase) | Structure (SMILES) | MTS cell kill data (% inhibition) NCI-H1299 (NCI-H1299) | MTS cell kill data (% inhibition) Kato III (Kato III) | MTS cell kill data (% inhibition) MDA-MB 231 (MDA-MB 231) | MTS cell kill data (% inhibition) PC-3 (PC-3) | MTS cell kill data (% inhibition) DLD-1 (DLD-1) | MTS cell kill data (% inhibition) PACA-2 (PACA-2)
C (C = <50% inhibition) | CC(C)c1ccc(C2c3[nH]c4ccccc4c3CCN2c2ncnc3[nH]ccc23)cc1 (stereo not drawn) [Compound 18, 1-(4-isopropylphenyl)-2-(7H-pyrrolo[2,3-d]pyrimidin-4-yl)-2,3,4,9-tetrahydro-1H-beta-carboline] | A (A = 80-100% inhibition) | A (A = 80-100% inhibition) | A (A = 80-100% inhibition) | C (C = <50% inhibition) | A (A = 80-100% inhibition) | A (A = 80-100% inhibition)
B (B = 50-79% inhibition) | Cc1cccc(C2c3[nH]c4ccccc4c3CCN2c2ncnc3[nH]ncc23)c1 (stereo not drawn) [Compound 12, 1-(3-methylphenyl)-2-(1H-pyrazolo[3,4-d]pyrimidin-4-yl)-2,3,4,9-tetrahydro-1H-beta-carboline] | B (B = 50-79% inhibition) | A (A = 80-100% inhibition) | B (B = 50-79% inhibition) | C (C = <50% inhibition) | B (B = 50-79% inhibition) | C (C = <50% inhibition)
C (C = <50% inhibition) | CC(C)c1ccc(C2c3[nH]c4ccccc4c3CCN2c2ncnc3[nH]cnc23)cc1 (stereo not drawn) [Compound 19, 1-(4-isopropylphenyl)-2-(9H-purin-6-yl)-2,3,4,9-tetrahydro-1H-beta-carboline] | C (C = <50% inhibition) | C (C = <50% inhibition) | C (C = <50% inhibition) | C (C = <50% inhibition) | C (C = <50% inhibition) | C (C = <50% inhibition)
C (C = <50% inhibition) | CC(C)c1ccc(C2c3[nH]c4ccccc4c3CCN2c2nc(N)nc3[nH]cnc23)cc1 (stereo not drawn) [Compound 20, 6-[1-(4-isopropylphenyl)-1,3,4,9-tetrahydro-2H-beta-carbolin-2-yl]-9H-purin-2-amine] | A (A = 80-100% inhibition) | A (A = 80-100% inhibition) | B (B = 50-79% inhibition) | C (C = <50% inhibition) | A (A = 80-100% inhibition) | B (B = 50-79% inhibition)
C (C = <50% inhibition) | COc1ccc(C2c3[nH]c4ccccc4c3CCN2c2ncnc3[nH]cnc23)cc1OC (stereo not drawn) [Compound 23, 1-(3,4-dimethoxyphenyl)-2-(9H-purin-6-yl)-2,3,4,9-tetrahydro-1H-beta-carboline] | B (B = 50-79% inhibition) | B (B = 50-79% inhibition) | C (C = <50% inhibition) | C (C = <50% inhibition) | B (B = 50-79% inhibition) | B (B = 50-79% inhibition)

The next lines start with the compound.

Structure (SMILES) | Biochemical IC50 (% inhibition) Tec (Tec kinase) | MTS cell kill data (% inhibition) NCI-H1299 (NCI-H1299) | MTS cell kill data (% inhibition) Kato III (Kato III) | MTS cell kill data (% inhibition) MDA-MB 231 (MDA-MB 231) | MTS cell kill data (% inhibition) PC-3 (PC-3) | MTS cell kill data (% inhibition) DLD-1 (DLD-1) | MTS cell kill data (% inhibition) PACA-2 (PACA-2)
Nc1nc(N2CCc3c([nH]c4ccccc34)C2c2cccc(C(F)(F)F)c2)c2cn[nH]c2n1 (stereo not drawn) [Compound 7, 4-{1-[3-(trifluoromethyl)phenyl]-1,3,4,9-tetrahydro-2H-beta-carbolin-2-yl}-1H-pyrazolo[3,4-d]pyrimidin-6-amine] | C (C = <50% inhibition) | C (C = <50% inhibition) | C (C = <50% inhibition) | B (B = 50-79% inhibition) | A (A = 80-100% inhibition) | C (C = <50% inhibition) | C (C = <50% inhibition)
FC(F)(F)c1cccc(C2c3[nH]c4ccccc4c3CCN2c2ncnc3[nH]ncc23)c1 (stereo not drawn) [Compound 9, 2-(1H-pyrazolo[3,4-d]pyrimidin-4-yl)-1-[3-(trifluoromethyl)phenyl]-2,3,4,9-tetrahydro-1H-beta-carboline] | B (B = 50-79% inhibition) | B (B = 50-79% inhibition) | B (B = 50-79% inhibition) | B (B = 50-79% inhibition) | C (C = <50% inhibition) | B (B = 50-79% inhibition) | B (B = 50-79% inhibition)
Fc1ccc(C2c3[nH]c4ccccc4c3CCN2c2ncnc3[nH]cnc23)cc1 (stereo not drawn) [Compound 5, 1-(4-fluorophenyl)-2-(9H-purin-6-yl)-2,3,4,9-tetrahydro-1H-beta-carboline] | C (C = <50% inhibition) | B (B = 50-79% inhibition) | A (A = 80-100% inhibition) | A (A = 80-100% inhibition) | A (A = 80-100% inhibition) | C (C = <50% inhibition) | C (C = <50% inhibition)
Brc1n[nH]c2ncnc(N3CCc4c([nH]c5ccccc45)C3)c12 [Compound 1, 2-(3-bromo-1H-pyrazolo[3,4-d]pyrimidin-4-yl)-2,3,4,9-tetrahydro-1H-beta-carboline] |  | B (B = 50-79% inhibition) | A (A = 80-100% inhibition) | C (C = <50% inhibition) | C (C = <50% inhibition) | B (B = 50-79% inhibition) | B (B = 50-79% inhibition)
